Assay results: ChEMBL document CHEMBL5247641, “Discovery of Potent DYRK2 Inhibitors with High Selectivity, Great Solubility, and Excellent Safety Properties for the Treatment of Prostate Cancer” (J Med Chem, 2023)
Activity calls are given as the source filed them. No cut-off for these calls is given here.

How the values were obtained:
DU-145 [1] = assay: Antimigratory activity against human DU-145 cells assessed as upregulation of E-cadherin expression level at 2 to 8 uM incubated for 24 hrs by Western blot analysis; format: functional, cell-based; conditions: dose 2-8 µM
DU-145 [2] = assay: Antiproliferative activity against human DU-145 cells assessed as inhibition of cell proliferation incubated for 3 days by CCK-8 assay; format: functional, cell-based; conditions: DU-145, 72 h
DU-145 [3] = assay: Antiproliferative activity against human DU-145 cells assessed as cell growth inhibition at 2 to 8 uM incubated for 5 days by microplate reader analysis; format: functional, cell-based; conditions: dose 2-8 µM, time 5.0 day
DU-145 [4] = assay: Antiproliferative activity against human DU-145 cells assessed as inhibition of clone formation at 1 to 8 uM incubated for 2 weeks by crystal violet staining based assay; format: functional, cell-based; conditions: dose 1-8 µM
DU-145 [5] = assay: Antimigratory activity against human DU-145 cells assessed as inhibition of cell migration at 1 to 8 uM incubated for 24 hrs by transwell migration assay; format: functional, cell-based; conditions: dose 1-8 µM
DU-145 [6] = assay: Induction of cell cycle arrest in human DU-145 cells assessed as accumulation of cells at G1 phase at 1 uM incubated for 24 hrs by propidium iodide based flow cytometric analysis (Rvb= 53.46%); format: functional
DU-145 [7] = assay: Induction of cell cycle arrest in human DU-145 cells assessed as accumulation of cells at G1 phase at 4 uM incubated for 24 hrs by propidium iodide based flow cytometric analysis (Rvb= 53.46%); format: functional
CWR22R [8] = assay: Induction of cell cycle arrest in human 22Rv1 cells assessed as accumulation of cells at G1 phase at 2 uM incubated for 24 hrs by propidium iodide based flow cytometric analysis (Rvb= 55.28%); format: functional
CWR22R [9] = assay: Induction of cell cycle arrest in human 22Rv1 cells assessed as accumulation of cells at S phase at 1 uM incubated for 24 hrs by propidium iodide based flow cytometric analysis (Rvb=20.51 %); format: functional
CWR22R [10] = assay: Induction of cell cycle arrest in human 22Rv1 cells assessed as accumulation of cells at S phase at 2 uM incubated for 24 hrs by propidium iodide based flow cytometric analysis (Rvb=20.51 %); format: functional
CWR22R [11] = assay: Induction of cell cycle arrest in human 22Rv1 cells assessed as accumulation of cells at G2 phase at 2 uM incubated for 24 hrs by propidium iodide based flow cytometric analysis (Rvb=24.21 %); format: functional
CWR22R [12] = assay: Induction of cell cycle arrest in human 22Rv1 cells assessed as accumulation of cells at G2 phase at 4 uM incubated for 24 hrs by propidium iodide based flow cytometric analysis (Rvb=24.21 %); format: functional
CWR22R [13] = assay: Induction of apoptosis in human 22Rv1 cells assessed as apoptotis rate at 8 uM incubated for 24 hrs by Annexin V-FITC and PI staining based flow cytometry (Rvb= 3.08%); format: functional
[14] = target: T1, Dual specificity tyrosine-phosphorylation-regulated kinase 2 (Homo sapiens) (UniProt Q92630); assay: Inhibition of DYRK2 in human DU-145 cells assessed as reduction in 4E-BP1 phosphorylation at 2 to 8 uM incubated for 24 hrs by Western blot analysis; format: cell-based; conditions: dose 2-8 µM
T1 sequence (whole entry): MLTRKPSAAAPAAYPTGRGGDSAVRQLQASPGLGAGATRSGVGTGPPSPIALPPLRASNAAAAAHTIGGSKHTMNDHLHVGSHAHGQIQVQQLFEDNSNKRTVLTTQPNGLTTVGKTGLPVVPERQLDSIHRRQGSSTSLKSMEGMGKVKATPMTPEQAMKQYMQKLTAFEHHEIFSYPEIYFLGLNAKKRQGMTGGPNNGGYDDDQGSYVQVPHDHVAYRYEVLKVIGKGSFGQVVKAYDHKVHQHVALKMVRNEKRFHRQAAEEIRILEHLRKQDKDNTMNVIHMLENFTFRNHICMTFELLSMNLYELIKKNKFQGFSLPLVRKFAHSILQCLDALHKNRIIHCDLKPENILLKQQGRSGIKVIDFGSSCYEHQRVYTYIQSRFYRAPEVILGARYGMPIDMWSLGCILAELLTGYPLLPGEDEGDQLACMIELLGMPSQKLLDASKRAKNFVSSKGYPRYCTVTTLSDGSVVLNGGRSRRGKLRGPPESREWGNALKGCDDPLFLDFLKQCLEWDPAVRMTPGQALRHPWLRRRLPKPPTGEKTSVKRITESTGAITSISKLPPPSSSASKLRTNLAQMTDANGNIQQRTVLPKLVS

[15] = target: T1, Dual specificity tyrosine-phosphorylation-regulated kinase 2 (Homo sapiens); assay: Inhibition of DYRK2 in human 22Rv1 cells assessed as reduction in 4E-BP1 phosphorylation at 2 to 8 uM incubated for 24 hrs by Western blot analysis; format: cell-based; conditions: dose 2-8 µM
DU-145 [16] = assay: Antiproliferative activity against human DU-145 cells assessed as increase in p27 expression level at 2 to 8 uM incubated for 24 hrs by Western blot analysis; format: functional, cell-based; conditions: dose 2-8 µM
CWR22R [17] = assay: Antiproliferative activity against human 22Rv1 cells assessed as increase in p27 expression level at 2 to 8 uM incubated for 24 hrs by Western blot analysis; format: functional, cell-based; conditions: dose 2-8 µM
CWR22R [18] = assay: Antimigratory activity against human 22Rv1 cells assessed as upregulation of E-cadherin expression level at 2 to 8 uM incubated for 24 hrs by Western blot analysis; format: functional, cell-based; conditions: dose 2-8 µM
[19] = Thermodynamic water solubility of compound by HPLC anlaysis; format: physicochemical; conditions: read-out: Therm_solubility
[20] = Metabolic stability in human liver microsomes assessed as intrinsic clearance in presence of NADPH incubated up to 60 mins by LC-MS/MS analysis; format: ADME, Microsome; conditions: read-out: CLH
[21] = Acute toxicity in ICR mouse assessed as abnormal body weight change at 1000 to 10000 mg/kg,po and measured upto 14 days; format: organism-based; conditions: in vivo, 336 h, dose 1000-10000 mg/kg, time < 14 day
[22] = Acute toxicity in ICR mouse assessed as change in heart weight at 1000 to 10000 mg/kg,po and measured after 14 days; format: organism-based; conditions: in vivo, 336 h, dose 1000-10000 mg/kg, time 14 day
[23] = Acute toxicity in ICR mouse assessed as change in liver weight at 1000 to 10000 mg/kg,po and measured after 14 days; format: organism-based; conditions: in vivo, 336 h, dose 1000-10000 mg/kg, time 14 day
[24] = Acute toxicity in ICR mouse assessed as appearance of lesions in heart at 5000 to 10000 mg/kg,po and measured after 14 days by H and E staining based microscopic analysis; format: organism-based; conditions: in vivo, 336 h, dose 5000-10000 mg/kg, time 14 day
DU-145 [25] = assay: Antitumor activity against human DU-145 xenografted in BALB/c nude mouse assessed as tumor growth inhibition at 100 mg/kg,po qd for 21 days; format: functional, organism-based; conditions: time 21.0 day
DU-145 [26] = assay: Antitumor activity against human DU-145 xenografted in BALB/c nude mouse assessed as tumor growth inhibition at 200 mg/kg,po administrated once daily for 21 days; format: functional, organism-based; conditions: time 21.0 day
DU-145 [27] = assay: Antitumor activity against human DU-145 xenografted in BALB/c nude mouse as inhibition of tumor cell proliferation at 100 to 200 mg/kg,po administrated once daily for 21 days by Ki67 staining based microscopic analysis; format: functional, organism-based; conditions: dose 100-200 mg/kg, time 21.0 day
DU-145 [28] = assay: Antitumor activity against human DU-145 xenografted in BALB/c nude mouse as upregulation of p27 level in tumor at 100 to 200 mg/kg,po administrated once daily for 21 days by Western blot analysis; format: functional, organism-based; conditions: dose 100-200 mg/kg, time 21.0 day

Question: With Cl.O=C(c1ccc(Nc2ncc(F)c(-c3ccc4scnc4c3)n2)nc1)N1CCNCC1 as the molecule, how does the Activity (DU-145 [1]) read?
Answer: Active

Question: What about the IC50 (DU-145 [2]) of the same molecule?
Answer: 1260 nM

Question: What about the Activity (DU-145 [3]) of the same molecule?
Answer: Active

Question: And the Activity (DU-145 [4])?
Answer: Active

Question: And the Activity (DU-145 [5])?
Answer: Active

Question: What about the Activity (DU-145 [6]) of the same molecule?
Answer: 54.77%

Question: And the Activity (DU-145 [7])?
Answer: 68.51%

Question: What about the Activity (CWR22R [8]) of the same molecule?
Answer: 62.88%

Question: And the Activity (CWR22R [9])?
Answer: 16.48%

Question: And the Activity (CWR22R [10])?
Answer: 14.24%

Question: What about the Activity (CWR22R [11]) of the same molecule?
Answer: 22.88%

Question: What about the Activity (CWR22R [12]) of the same molecule?
Answer: 19.42%

Question: And the Activity (CWR22R [13])?
Answer: 24.04%

Question: What about the inhibition [14] of the same molecule?
Answer: Active

Question: What about the inhibition [15] of the same molecule?
Answer: Active

Question: What about the Activity (DU-145 [16]) of the same molecule?
Answer: Active

Question: What about the Activity (CWR22R [17]) of the same molecule?
Answer: Active

Question: And the Activity (CWR22R [18])?
Answer: Active

Question: What about the solubility thermodynamic [19] of the same molecule?
Answer: 29.5 mg/mL

Question: And the CLint scaled [20]?
Answer: 16 mL/min/kg

Question: What about the Activity [21] of the same molecule?
Answer: Non-Toxic

Question: What about the Activity [22] of the same molecule?
Answer: Non-Toxic

Question: And the Activity [23]?
Answer: Non-Toxic

Question: And the Activity [24]?
Answer: Non-Toxic

Question: And the Activity (DU-145 [25])?
Answer: Active

Question: What about the Activity (DU-145 [26]) of the same molecule?
Answer: Active

Question: What about the Activity (DU-145 [27]) of the same molecule?
Answer: Active

Question: What about the Activity (DU-145 [28]) of the same molecule?
Answer: Active
